# Test results published in ChEMBL document CHEMBL3885861, “Open TG-GATES”.
# Species on record: Rattus norvegicus
# Assay: Open TG-GATES - Regimen: Daily Repeat
# Type: toxicity, organism-based, Sprague-Dawley
# Set-up: regimen Daily Repeat, gender Male, age 6 weeks
# Conditions: in vivo, po, 0 mg/kg, route gavage, dose level Control; for APTT / Bas / Eos / Fbg / Hb / Ht / Lym / MCH / MCHC / MCV / Mono / Neu / PT / Plat / RBC / Ret / WBC: tissue Blood; for KIDNEY_L / KIDNEY_R / KIDNEY_TOTAL: tissue Kidney; for LIVER: tissue Liver; for A/G / ALP / ALT / AST / BUN / CRE / Ca / Cl / DBIL / GLC / IP / K / LDH / Na / PL / RALB / TBIL / TC / TG / TP / gamma-GTP: tissue Plasma
compound,measurement,setting,value
CCc1oc2ccccc2c1C(=O)c1cc(Br)c(O)c(Br)c1 [BENZBROMARONE],TERMINAL_BW,"72 h, time 3 day",230.4 g
same,APTT,"72 h, time 3 day",16.2 s
same,Bas,"72 h, time 3 day",0%
same,Eos,"72 h, time 3 day",1.6%
same,Fbg,"72 h, time 3 day",232 mg/dL
same,Hb,"72 h, time 3 day",14.5 g/dL
same,Ht,"72 h, time 3 day",42.7%
same,Lym,"72 h, time 3 day",73%
same,MCH,"72 h, time 3 day",22.5 pg
same,MCHC,"72 h, time 3 day",34%
same,MCV,"72 h, time 3 day",66.2 fL
same,Mono,"72 h, time 3 day",6.6%
same,Neu,"72 h, time 3 day",18.6%
same,PT,"72 h, time 3 day",11.7 s
same,Plat,"72 h, time 3 day",111.1 x10_4/uL
same,RBC,"72 h, time 3 day",645.6 x10_4/ul
same,Ret,"72 h, time 3 day",7.2%
same,WBC,"72 h, time 3 day",113.8 x10_2/uL
same,KIDNEY_L,"72 h, time 3 day",1 g
same,KIDNEY_R,"72 h, time 3 day",1 g
same,KIDNEY_TOTAL,"72 h, time 3 day",2 g
same,LIVER,"72 h, time 3 day",11.1 g
same,A/G,"72 h, time 3 day",2
same,ALP,"72 h, time 3 day",921.2 IU/L
same,ALT,"72 h, time 3 day",34.6 IU/L
same,AST,"72 h, time 3 day",62.8 IU/L
same,BUN,"72 h, time 3 day",16.4 mg/dL
same,CRE,"72 h, time 3 day",0.5 mg/dL
same,Ca,"72 h, time 3 day",9.9 mg/dL
same,Cl,"72 h, time 3 day",106.3 meq/L
same,DBIL,"72 h, time 3 day",0.008 mg/dL
same,GLC,"72 h, time 3 day",197 mg/dL
same,IP,"72 h, time 3 day",7.5 mg/dL
same,K,"72 h, time 3 day",5.1 meq/L
same,LDH,"72 h, time 3 day",84.6 IU/L
same,Na,"72 h, time 3 day",139.5 meq/L
same,PL,"72 h, time 3 day",156.8 mg/dL
same,RALB,"72 h, time 3 day",3.9 g/dL
same,TBIL,"72 h, time 3 day",0.3 mg/dL
same,TC,"72 h, time 3 day",82 mg/dL
same,TG,"72 h, time 3 day",106 mg/dL
same,TP,"72 h, time 3 day",5.9 g/dL
same,gamma-GTP,"72 h, time 3 day",0.6 IU/L
same,TERMINAL_BW,"[…], time 7 day",262.9 g
same,TERMINAL_BW,"[…], time 14 day",315 g
same,TERMINAL_BW,"[…], time 28 day",382.2 g
same,APTT,"[…], time 7 day",16.8 s
same,Bas,"[…], time 7 day",0%
same,Eos,"[…], time 7 day",1%
same,Fbg,"[…], time 7 day",236.4 mg/dL
same,Hb,"[…], time 7 day",14.5 g/dL
same,Ht,"[…], time 7 day",42.7%
same,Lym,"[…], time 7 day",80%
same,MCH,"[…], time 7 day",21.4 pg
same,MCHC,"[…], time 7 day",33.8%
same,MCV,"[…], time 7 day",63.3 fL
same,Mono,"[…], time 7 day",6.6%
same,Neu,"[…], time 7 day",12.4%
same,PT,"[…], time 7 day",11.9 s
same,Plat,"[…], time 7 day",113.2 x10_4/uL
same,RBC,"[…], time 7 day",675 x10_4/ul
same,Ret,"[…], time 7 day",5.5%
same,WBC,"[…], time 7 day",109.7 x10_2/uL
same,APTT,"[…], time 14 day",16 s
same,Bas,"[…], time 14 day",0%
same,Eos,"[…], time 14 day",1.6%
same,Fbg,"[…], time 14 day",223.8 mg/dL
same,Hb,"[…], time 14 day",14.7 g/dL
same,Ht,"[…], time 14 day",43.8%
same,Lym,"[…], time 14 day",77.4%
same,MCH,"[…], time 14 day",20.9 pg
same,MCHC,"[…], time 14 day",33.6%
same,MCV,"[…], time 14 day",62.3 fL
same,Mono,"[…], time 14 day",4.4%
same,Neu,"[…], time 14 day",16.8%
same,PT,"[…], time 14 day",11.8 s
same,Plat,"[…], time 14 day",110.7 x10_4/uL
same,RBC,"[…], time 14 day",703.4 x10_4/ul
same,Ret,"[…], time 14 day",4.7%
same,WBC,"[…], time 14 day",138.1 x10_2/uL
same,APTT,"[…], time 28 day",16.6 s
same,Bas,"[…], time 28 day",0%
same,Eos,"[…], time 28 day",1%
same,Fbg,"[…], time 28 day",230.2 mg/dL
same,Hb,"[…], time 28 day",15.5 g/dL
same,Ht,"[…], time 28 day",46.5%
same,Lym,"[…], time 28 day",83.8%
same,MCH,"[…], time 28 day",18.6 pg
same,MCHC,"[…], time 28 day",33.3%
same,MCV,"[…], time 28 day",55.9 fL
same,Mono,"[…], time 28 day",3.8%
same,Neu,"[…], time 28 day",11.4%
same,PT,"[…], time 28 day",12 s
same,Plat,"[…], time 28 day",106.6 x10_4/uL
same,RBC,"[…], time 28 day",832 x10_4/ul
same,Ret,"[…], time 28 day",2.6%
same,WBC,"[…], time 28 day",136.5 x10_2/uL
same,KIDNEY_L,"[…], time 7 day",1.1 g
same,KIDNEY_R,"[…], time 7 day",1.2 g
same,KIDNEY_TOTAL,"[…], time 7 day",2.3 g
same,KIDNEY_L,"[…], time 14 day",1.2 g
same,KIDNEY_R,"[…], time 14 day",1.2 g
same,KIDNEY_TOTAL,"[…], time 14 day",2.4 g
same,KIDNEY_L,"[…], time 28 day",1.4 g
same,KIDNEY_R,"[…], time 28 day",1.4 g
same,KIDNEY_TOTAL,"[…], time 28 day",2.9 g
same,LIVER,"[…], time 7 day",12.8 g
same,LIVER,"[…], time 14 day",13.9 g
same,LIVER,"[…], time 28 day",15.8 g
same,A/G,"[…], time 7 day",1.7
same,ALP,"[…], time 7 day",777 IU/L
same,ALT,"[…], time 7 day",31.8 IU/L
same,AST,"[…], time 7 day",60.6 IU/L
same,BUN,"[…], time 7 day",20.4 mg/dL
same,CRE,"[…], time 7 day",0.5 mg/dL
same,Ca,"[…], time 7 day",10.3 mg/dL
same,Cl,"[…], time 7 day",106.5 meq/L
same,DBIL,"[…], time 7 day",0.02 mg/dL
same,GLC,"[…], time 7 day",197.2 mg/dL
same,IP,"[…], time 7 day",7.1 mg/dL
same,K,"[…], time 7 day",5.1 meq/L
same,LDH,"[…], time 7 day",102.2 IU/L
same,Na,"[…], time 7 day",138.3 meq/L
same,PL,"[…], time 7 day",157.8 mg/dL
same,RALB,"[…], time 7 day",3.9 g/dL
same,TBIL,"[…], time 7 day",0.3 mg/dL
same,TC,"[…], time 7 day",74.4 mg/dL
same,TG,"[…], time 7 day",136.4 mg/dL
same,TP,"[…], time 7 day",6.1 g/dL
same,gamma-GTP,"[…], time 7 day",1 IU/L
same,A/G,"[…], time 14 day",1.8
same,ALP,"[…], time 14 day",712.8 IU/L
same,ALT,"[…], time 14 day",30.6 IU/L
same,AST,"[…], time 14 day",62.6 IU/L
same,BUN,"[…], time 14 day",18.2 mg/dL
same,CRE,"[…], time 14 day",0.5 mg/dL
same,Ca,"[…], time 14 day",10.2 mg/dL
same,Cl,"[…], time 14 day",108.1 meq/L
same,DBIL,"[…], time 14 day",0.008 mg/dL
same,GLC,"[…], time 14 day",187.6 mg/dL
same,IP,"[…], time 14 day",6.5 mg/dL
same,K,"[…], time 14 day",4.9 meq/L
same,LDH,"[…], time 14 day",85.6 IU/L
same,Na,"[…], time 14 day",140.1 meq/L
same,PL,"[…], time 14 day",158.6 mg/dL
same,RALB,"[…], time 14 day",3.9 g/dL
same,TBIL,"[…], time 14 day",0.3 mg/dL
same,TC,"[…], time 14 day",78.6 mg/dL
same,TG,"[…], time 14 day",139.8 mg/dL
same,TP,"[…], time 14 day",6.1 g/dL
same,gamma-GTP,"[…], time 14 day",1.2 IU/L
same,A/G,"[…], time 28 day",1.6
same,ALP,"[…], time 28 day",607.6 IU/L
same,ALT,"[…], time 28 day",28.2 IU/L
same,AST,"[…], time 28 day",58 IU/L
same,BUN,"[…], time 28 day",19.6 mg/dL
same,CRE,"[…], time 28 day",0.6 mg/dL
same,Ca,"[…], time 28 day",9.7 mg/dL
same,Cl,"[…], time 28 day",106.7 meq/L
same,DBIL,"[…], time 28 day",0.006 mg/dL
same,GLC,"[…], time 28 day",182 mg/dL
same,IP,"[…], time 28 day",6.5 mg/dL
same,K,"[…], time 28 day",4.5 meq/L
same,LDH,"[…], time 28 day",89.8 IU/L
same,Na,"[…], time 28 day",139.4 meq/L
same,PL,"[…], time 28 day",146.4 mg/dL
same,RALB,"[…], time 28 day",4 g/dL
same,TBIL,"[…], time 28 day",0.3 mg/dL
same,TC,"[…], time 28 day",70.4 mg/dL
same,TG,"[…], time 28 day",146.8 mg/dL
same,TP,"[…], time 28 day",6.4 g/dL
same,gamma-GTP,"[…], time 28 day",1.4 IU/L
